BindingDB's records for doi:10.1021/jm010992z (Pharmazeutisches Institut Der Universität Freiburg, 2002)

How the values were obtained:
[1] = target: Sodium-dependent dopamine transporter (Rattus norvegicus) (UniProt P23977); experiment: The compound was tested for inhibition of dopamine reuptake
[2] = Sigma opioid receptor type 2 affinity in rat liver by employing [3H]ditolylguanidine as radioligand
[3] = Sigma opioid receptor type 1 affinity in guinea pig brain by employing [3H](+)-pentazocine as radioligand.

Chain of Sodium-dependent dopamine transporter (Rattus norvegicus) (P23977 whole entry, looked up): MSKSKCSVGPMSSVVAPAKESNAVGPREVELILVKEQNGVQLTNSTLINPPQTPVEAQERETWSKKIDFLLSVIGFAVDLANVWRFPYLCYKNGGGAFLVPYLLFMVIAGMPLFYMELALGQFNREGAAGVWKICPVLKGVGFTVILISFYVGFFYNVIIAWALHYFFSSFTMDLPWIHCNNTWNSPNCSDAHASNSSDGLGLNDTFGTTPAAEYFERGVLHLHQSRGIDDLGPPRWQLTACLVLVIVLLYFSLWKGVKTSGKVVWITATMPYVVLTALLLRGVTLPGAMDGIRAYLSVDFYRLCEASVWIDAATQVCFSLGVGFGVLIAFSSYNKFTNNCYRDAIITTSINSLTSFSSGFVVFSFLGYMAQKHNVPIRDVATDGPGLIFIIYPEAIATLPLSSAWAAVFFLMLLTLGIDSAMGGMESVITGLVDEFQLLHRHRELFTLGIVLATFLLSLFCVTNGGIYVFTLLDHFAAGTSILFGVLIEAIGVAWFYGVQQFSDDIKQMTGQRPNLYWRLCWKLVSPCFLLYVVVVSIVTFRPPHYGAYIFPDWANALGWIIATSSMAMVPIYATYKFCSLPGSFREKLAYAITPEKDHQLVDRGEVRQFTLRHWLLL

Structure (SMILES) | IC50 [1] [µM] | Ki [2] [µM] | Ki [3] [µM]
COC1OC2(CCN(Cc3ccccc3)CC2)c2ccccc21 (stereo not given) [1'-benzyl-3-methoxyspiro[1,3-dihydroisobenzofuran-1,4'-(hexahydropyridine)]] | > 10 |  | 
COC1Cc2ccccc2C2(CCN(C/C=C/c3ccccc3)CC2)O1 (stereo not given) [3-[3-methoxyspiro[3,4-dihydro-1H-isochromene-1,4'-(hexahydropyridine)]-1-yl]-1-phenyl-(E)-1-propene] |  | 4 | 0.013
COC1Cc2ccccc2C2(CCN(C)CC2)O1 (stereo not given) [3-methoxy-1'-methylspiro[3,4-dihydro-1H-isochromene-1,4'-(hexahydropyridine)]] |  | > 10 | 4.4

The next lines start with the values.

IC50 [1] [µM] | Ki [2] [µM] | Ki [3] [µM] | Structure (SMILES)
1.6 |  |  | COC1Cc2ccccc2C2(CCN(CCCc3ccccc3)CC2)O1 (stereo not given)
 | 0.107 | 0.044 | OC1Cc2ccccc2C2(CCN(CCc3ccccc3)CC2)O1 (stereo not given) [1'-phenethylspiro[3,4-dihydro-1H-isochromene-1,4'-(hexahydropyridine)]-3-ol]
 | 0.311 | 0.01 | COC1Cc2ccccc2C2(CCN(CCCCc3ccccc3)CC2)O1 (stereo not given) [1-[3-methoxyspiro[3,4-dihydro-1H-isochromene-1,4'-(hexahydropyridine)]-1-yl]-4-phenylbutane]
